Key:
Puccinia recondita = assay: Curative activity against brown rust of wheat (greenhouse); type: in vivo; settings: wheat seedlings Kanzler, 7 days
Experimental: The active compounds, separately or together, are formulated as a 10% emulsion in a mixture of 63% by weight of cyclohexanone and 27% by weight of emulsifier, and diluted with water to the desired concentration.
(§1) Evaluation is carried out by determining the infected leaf areas as a percentage. These percentages are converted into efficacies. The efficacy (W) is calculated as follows using Abbot's formula: [formula] • α corresponds to the fungal infection of the treated plants as a % and • β corresponds to the fungal infection of the untreated (control) plants as a %
(§2) An efficacy of 0 means that the infection level of the treated plants corresponds to that of the untreated control plants; an efficacy of 100 means that the treated plants were not infected.
(§3) The expected efficacies of the mixtures of the active compounds were determined using Colby's formula [R. S. Colby, Weeds 15, 20-22 (1967)] and compared with the observed efficacies. Colby's formula: E=x+y−x·y/100 • E expected efficacy, expressed as a % of the untreated control, when using the mixture of the active compounds A and B at the concentrations a and b • x efficacy, expressed as a % of the untreated control, when using active compound A at a concentration of a • y efficacy, expressed as a % of the untreated control, when using active compound B at a concentration of b
Leaves of wheat seedlings of the cultivar “Kanzler”, grown in pots, were dusted with spores of brown rust (Puccinia recondita). The pots were then placed in a chamber with high atmospheric humidity (90-95%), at 20-22° C., for 24 hours. During this time the spores germinated and the germinal tubes penetrated into the leaf tissue. The next day, the infected plants were sprayed to runoff point with an aqueous formulation of active compound prepared from a stock solution consisting of 10% of active compound, 85% of cyclohexanone and 5% of emulsifier. After the spray coating had dried on, the test plants were cultivated in a greenhouse at 20-22° C. and 65-70% relative atmospheric humidity for 7 days. Thereafter, the extent of the rust fungus development on the leaves was determined.
(§4) The visually determined values for the percentage of diseased leaf areas were converted into efficacies in % of the untreated control. An efficacy of 0 means the same disease level as in the untreated control, an efficacy of 100 means a disease level of 0%. The expected efficacies for the combinations of active compounds were determined using Colby's formula (Colby. S. R. (Calculating synergistic and antagonistic responses of herbicide Combinations”, Weeds, 15, pp. 20-22, 1967) and compared with the observed efficacies.

[1] = test system: Erysiphe [syn. Blumeria] graminis forma specialis. tritici; assay: Activity against mildew of wheat (protective spray, greenhouse); type: in vivo; settings: wheat seedlings Kanzler, 7 days
Experimental: as §1, §2, §3
Leaves of wheat seedlings of the cultivar “Kanzler”, grown in pots, were sprayed to runoff point with an aqueous preparation of active compound which had been prepared from a stock solution comprising 10% of active compound, 85% of cyclohexanone and 5% of emulsifier, and 24 hours after the spray coating had dried on the leaves were dusted with spores of mildew of wheat (Erysiphe [syn. Blumeria] graminis forma specialis. tritici). The test plants were then placed in a greenhouse at 20-24° C. and 60-90% relative atmospheric humidity. After 7 days, the extent of the mildew development was determined visually in % infection of the entire leaf area.
as §4, with “level” for “level as”, “(Colby,” for “(Colby.”

Fc1ccc(C2(Cn3cncn3)OC2c2ccccc2Cl)cc1 (centres unmarked) [epoxiconazole]
Efficacy in % of the untreated control (Puccinia recondita; 0.015 ppm in the spray liquor): 0% | Efficacy in % of the untreated control (Puccinia recondita; 0.06 ppm in the spray liquor): 11% | Efficacy in % of the untreated control (Puccinia recondita; 0.25 ppm in the spray liquor): 56% | Efficacy in % of the untreated control ([1]; 0.015 ppm in the spray liquor): 0% | Efficacy in % of the untreated control ([1]; 0.06 ppm in the spray liquor): 0% | Efficacy in % of the untreated control ([1]; 0.125 ppm in the spray liquor): 0% | Efficacy in % of the untreated control ([1]; 0.25 ppm in the spray liquor): 29% | Efficacy in % of the untreated control ([1]; 1 ppm in the spray liquor): 59%

CC1(C)CCC(Cc2ccc(Cl)cc2)C1(O)Cn1cncn1 (centres unmarked) [metconazole]
Efficacy in % of the untreated control (Puccinia recondita; 0.015 ppm in the spray liquor): 0% | Efficacy in % of the untreated control (Puccinia recondita; 0.06 ppm in the spray liquor): 0% | Efficacy in % of the untreated control (Puccinia recondita; 0.25 ppm in the spray liquor): 56% | Efficacy in % of the untreated control ([1]; 0.015 ppm in the spray liquor): 0% | Efficacy in % of the untreated control ([1]; 0.06 ppm in the spray liquor): 0% | Efficacy in % of the untreated control ([1]; 0.25 ppm in the spray liquor): 0%

CCCCC(C#N)(Cn1cncn1)c1ccc(Cl)cc1 (centres unmarked) [myclobutanil]
Efficacy in % of the untreated control (Puccinia recondita; 0.06 ppm in the spray liquor): 0% | Efficacy in % of the untreated control (Puccinia recondita; 0.25 ppm in the spray liquor): 0% | Efficacy in % of the untreated control (Puccinia recondita; 1 ppm in the spray liquor): 0% | Efficacy in % of the untreated control ([1]; 0.015 ppm in the spray liquor): 0% | Efficacy in % of the untreated control ([1]; 0.06 ppm in the spray liquor): 0% | Efficacy in % of the untreated control ([1]; 0.25 ppm in the spray liquor): 0%

Source: US20050148547A1, “Fungicidal mixtures based on benzamidoxime derivatives and azoles” (priority 2002, published 2005)
